Measured values reported in ChEMBL document CHEMBL2424532, “Investigation of an F-18 oxytocin receptor selective ligand via PET imaging” (Bioorg Med Chem Lett, 2013).

Legend:
[1] = target: T1, Vasopressin V1b receptor (Homo sapiens, UniProt P47901); experiment: Binding affinity to human V1BR by competitive binding assay
T1 sequence (P47901 whole entry): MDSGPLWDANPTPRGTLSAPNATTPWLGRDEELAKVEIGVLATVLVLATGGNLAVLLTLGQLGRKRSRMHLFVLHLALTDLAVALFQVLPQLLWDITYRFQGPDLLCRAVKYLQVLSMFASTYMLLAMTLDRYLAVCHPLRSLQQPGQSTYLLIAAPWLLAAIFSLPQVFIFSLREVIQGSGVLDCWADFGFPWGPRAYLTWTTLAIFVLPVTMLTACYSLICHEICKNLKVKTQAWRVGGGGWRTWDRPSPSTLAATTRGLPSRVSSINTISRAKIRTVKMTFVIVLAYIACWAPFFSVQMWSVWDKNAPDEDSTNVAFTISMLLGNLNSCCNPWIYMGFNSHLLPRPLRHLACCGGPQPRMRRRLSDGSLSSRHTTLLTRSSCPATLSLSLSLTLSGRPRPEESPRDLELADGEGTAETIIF

[2] = target: Serotonin (5-HT) receptor; experiment: Binding affinity to human 5HTB receptor by competitive binding assay; format: protein assay
[3] = target: 5-hydroxytryptamine receptor 1B (Homo sapiens, UniProt P28222); experiment: Binding affinity to human 5HT1B receptor by competitive binding assay
[4] = target: T2, Muscarinic acetylcholine receptor M4 (Homo sapiens, UniProt P08173); experiment: Binding affinity to human muscarinic M4 receptor by competitive binding assay
T2 sequence (P08173 whole entry): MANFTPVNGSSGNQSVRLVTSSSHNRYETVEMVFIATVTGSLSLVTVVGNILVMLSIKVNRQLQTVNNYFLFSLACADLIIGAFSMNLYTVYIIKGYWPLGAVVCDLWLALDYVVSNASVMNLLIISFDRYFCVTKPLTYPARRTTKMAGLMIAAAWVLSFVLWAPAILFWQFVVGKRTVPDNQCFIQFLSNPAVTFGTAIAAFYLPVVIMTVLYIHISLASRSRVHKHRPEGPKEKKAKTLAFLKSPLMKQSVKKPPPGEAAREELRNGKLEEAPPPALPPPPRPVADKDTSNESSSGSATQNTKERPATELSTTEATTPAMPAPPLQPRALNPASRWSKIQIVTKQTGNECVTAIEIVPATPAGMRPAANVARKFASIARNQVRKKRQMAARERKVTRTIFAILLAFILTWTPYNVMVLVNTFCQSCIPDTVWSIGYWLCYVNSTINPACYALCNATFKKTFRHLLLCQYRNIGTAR

[5] = target: D(3) dopamine receptor (Homo sapiens, UniProt P35462); experiment: Binding affinity to human dopamine D3 receptor by competitive binding assay
[6] = target: 5-hydroxytryptamine receptor 2B (Homo sapiens, UniProt P41595); experiment: Binding affinity to human 5HT2B receptor by competitive binding assay
[7] = target: 5-hydroxytryptamine receptor 6 (Homo sapiens, UniProt P50406); experiment: Binding affinity to human 5HT6 receptor by competitive binding assay
[8] = target: Vasopressin V1a receptor (Homo sapiens, UniProt P37288); experiment: Binding affinity to human V1AR by competitive binding assay
[9] = target: T3, Alpha-1A adrenergic receptor (Homo sapiens, UniProt P35348); experiment: Binding affinity to human adrenergic alpha-1A receptor by competitive binding assay
T3 sequence (P35348 whole entry): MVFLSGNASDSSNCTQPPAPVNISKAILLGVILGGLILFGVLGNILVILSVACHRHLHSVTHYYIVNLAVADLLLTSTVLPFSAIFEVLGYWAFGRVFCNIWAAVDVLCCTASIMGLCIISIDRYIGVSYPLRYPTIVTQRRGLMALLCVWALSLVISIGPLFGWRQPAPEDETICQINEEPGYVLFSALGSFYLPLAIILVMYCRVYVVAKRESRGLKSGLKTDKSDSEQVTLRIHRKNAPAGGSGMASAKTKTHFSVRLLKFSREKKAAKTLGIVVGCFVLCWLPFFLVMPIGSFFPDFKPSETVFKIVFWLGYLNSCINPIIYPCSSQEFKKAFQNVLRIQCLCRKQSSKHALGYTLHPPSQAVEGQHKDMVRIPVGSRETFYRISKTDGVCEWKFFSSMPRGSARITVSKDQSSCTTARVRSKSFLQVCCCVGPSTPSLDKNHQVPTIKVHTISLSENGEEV

[10] = target: T4, Oxytocin receptor (Homo sapiens, UniProt P30559); experiment: Binding affinity to human OTR by competitive binding assay
T4 sequence (P30559 whole entry): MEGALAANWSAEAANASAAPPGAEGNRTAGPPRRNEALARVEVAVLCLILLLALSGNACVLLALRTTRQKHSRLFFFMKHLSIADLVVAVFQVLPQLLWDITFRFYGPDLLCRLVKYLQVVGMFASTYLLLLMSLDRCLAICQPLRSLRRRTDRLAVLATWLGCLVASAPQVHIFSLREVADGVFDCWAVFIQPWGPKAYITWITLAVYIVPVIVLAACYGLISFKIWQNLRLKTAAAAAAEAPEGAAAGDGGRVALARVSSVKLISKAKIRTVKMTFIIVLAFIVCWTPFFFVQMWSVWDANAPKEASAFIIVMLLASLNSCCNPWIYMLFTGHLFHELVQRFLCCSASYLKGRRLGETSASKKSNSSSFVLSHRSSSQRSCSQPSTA

[11] = target: Vasopressin V2 receptor (Homo sapiens, UniProt P30518); experiment: Binding affinity to human V2R by competitive binding assay
[12] = Lipophilicity, log P of the compound at pH 7.4; format: physicochemical; conditions: buffer
[13] = tested on: Brain; experiment: Drug uptake in Sprague-Dawley rat brain at 280 uCi up to 20 mins by PET analysis; format: ADME, tissue-based; conditions: in vivo
[14] = Drug uptake in cynomolgus monkey choroid plexus at 5.5 mCi after 2 hrs in presence of unlabeled compound administered 30 mins before tracer challenge; format: ADME, Macaca fascicularis; conditions: in vivo
[15] = tested on: Brain; experiment: Drug uptake in Sprague-Dawley rat brain at 280 uCi after 20 mins by PET analysis; format: ADME, tissue-based; conditions: in vivo
[16] = Drug uptake in cynomolgus monkey middle cerebral artery of cerebral cortex at 5.5 mCi up to 15 mins; format: ADME, tissue-based, Macaca fascicularis; conditions: in vivo, 0.25 h
[17] = Drug uptake in cynomolgus monkey choroid plexus at 5.5 mCi after 2 hrs in presence of unlabeled compound administered 45 mins before tracer challenge; format: ADME, Macaca fascicularis; conditions: in vivo

5-hydroxytryptamine receptor 2B, sequence (P41595 whole entry): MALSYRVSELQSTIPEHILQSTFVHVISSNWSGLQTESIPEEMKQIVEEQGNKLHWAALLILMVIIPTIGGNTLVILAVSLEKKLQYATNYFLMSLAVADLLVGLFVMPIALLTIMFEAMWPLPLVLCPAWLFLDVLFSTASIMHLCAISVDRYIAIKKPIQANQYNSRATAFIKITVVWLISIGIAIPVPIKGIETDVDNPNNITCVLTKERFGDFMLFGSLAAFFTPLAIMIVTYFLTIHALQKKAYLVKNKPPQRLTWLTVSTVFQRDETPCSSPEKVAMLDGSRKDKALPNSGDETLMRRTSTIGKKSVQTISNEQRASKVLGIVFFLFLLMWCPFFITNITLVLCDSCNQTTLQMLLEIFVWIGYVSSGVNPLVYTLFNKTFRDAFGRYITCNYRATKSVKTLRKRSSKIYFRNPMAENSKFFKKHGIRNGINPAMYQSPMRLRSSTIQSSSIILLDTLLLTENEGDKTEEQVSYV
Vasopressin V1a receptor, sequence (P37288 whole entry): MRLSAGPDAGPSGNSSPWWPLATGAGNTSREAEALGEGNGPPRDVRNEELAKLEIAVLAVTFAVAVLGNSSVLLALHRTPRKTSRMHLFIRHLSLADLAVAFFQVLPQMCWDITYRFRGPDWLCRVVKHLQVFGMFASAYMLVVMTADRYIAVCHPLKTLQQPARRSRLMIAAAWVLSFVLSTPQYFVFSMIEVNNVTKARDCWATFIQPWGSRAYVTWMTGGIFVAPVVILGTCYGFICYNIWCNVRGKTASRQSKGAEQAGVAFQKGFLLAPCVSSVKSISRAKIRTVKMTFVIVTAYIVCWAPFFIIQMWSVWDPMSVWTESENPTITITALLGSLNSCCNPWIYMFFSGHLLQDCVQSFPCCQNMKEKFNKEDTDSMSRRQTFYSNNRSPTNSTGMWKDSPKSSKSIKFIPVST
5-hydroxytryptamine receptor 1B, sequence (P28222 whole entry): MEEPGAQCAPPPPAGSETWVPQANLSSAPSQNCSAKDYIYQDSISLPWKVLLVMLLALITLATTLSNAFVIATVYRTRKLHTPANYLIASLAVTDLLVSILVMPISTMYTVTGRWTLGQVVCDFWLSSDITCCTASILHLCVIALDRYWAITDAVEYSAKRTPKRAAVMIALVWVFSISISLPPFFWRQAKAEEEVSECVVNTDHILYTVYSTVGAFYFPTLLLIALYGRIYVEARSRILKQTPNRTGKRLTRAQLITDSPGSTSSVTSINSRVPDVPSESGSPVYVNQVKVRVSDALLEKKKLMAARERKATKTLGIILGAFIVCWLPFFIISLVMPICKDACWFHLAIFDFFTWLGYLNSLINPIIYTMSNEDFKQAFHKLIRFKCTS
5-hydroxytryptamine receptor 6, sequence (P50406 whole entry): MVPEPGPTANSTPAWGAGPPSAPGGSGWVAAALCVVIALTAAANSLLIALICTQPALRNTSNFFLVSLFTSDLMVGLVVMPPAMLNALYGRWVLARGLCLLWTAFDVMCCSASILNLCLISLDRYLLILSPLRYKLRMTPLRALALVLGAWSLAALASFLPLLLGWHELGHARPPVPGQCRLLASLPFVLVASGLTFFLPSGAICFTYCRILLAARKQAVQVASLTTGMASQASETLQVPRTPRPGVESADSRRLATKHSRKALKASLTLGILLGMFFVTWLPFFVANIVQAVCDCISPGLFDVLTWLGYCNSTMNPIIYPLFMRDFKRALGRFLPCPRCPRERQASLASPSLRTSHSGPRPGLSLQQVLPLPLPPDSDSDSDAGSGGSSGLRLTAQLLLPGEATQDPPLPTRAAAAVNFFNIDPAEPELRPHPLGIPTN
Vasopressin V2 receptor, sequence (P30518 whole entry): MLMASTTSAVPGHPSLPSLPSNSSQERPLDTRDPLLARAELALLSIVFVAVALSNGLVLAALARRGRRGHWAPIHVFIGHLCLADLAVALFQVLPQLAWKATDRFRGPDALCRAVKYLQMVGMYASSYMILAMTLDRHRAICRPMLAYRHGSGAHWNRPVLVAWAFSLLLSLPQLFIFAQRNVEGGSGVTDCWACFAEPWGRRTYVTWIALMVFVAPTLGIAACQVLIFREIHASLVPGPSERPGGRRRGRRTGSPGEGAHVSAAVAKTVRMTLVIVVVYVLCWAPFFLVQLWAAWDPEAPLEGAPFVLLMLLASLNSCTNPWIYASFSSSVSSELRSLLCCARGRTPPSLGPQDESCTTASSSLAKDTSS
D(3) dopamine receptor, sequence (P35462 whole entry): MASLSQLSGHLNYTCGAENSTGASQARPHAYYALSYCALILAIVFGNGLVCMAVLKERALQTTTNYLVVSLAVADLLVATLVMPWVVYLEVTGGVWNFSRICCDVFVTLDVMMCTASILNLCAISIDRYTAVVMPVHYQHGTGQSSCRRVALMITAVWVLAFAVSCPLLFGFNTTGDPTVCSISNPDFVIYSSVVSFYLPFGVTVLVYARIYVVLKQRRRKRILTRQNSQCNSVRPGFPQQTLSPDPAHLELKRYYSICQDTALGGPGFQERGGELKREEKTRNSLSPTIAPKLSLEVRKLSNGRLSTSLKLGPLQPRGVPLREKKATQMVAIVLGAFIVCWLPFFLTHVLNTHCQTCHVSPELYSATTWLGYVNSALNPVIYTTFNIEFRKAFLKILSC

Row | Compound | Ki [1] | Ki [2] | Ki [3] | Ki [4] | Ki [5] | Ki [6] | Ki [7] | Ki [8] | Ki [9] | Ki [10] | Ki [11] | logD [12] | Drug uptake [13] | Drug uptake [14] | Drug uptake [15] | Drug uptake [16] | Drug uptake [17]
1 | CS(=O)(=O)N1CCC(Oc2ccc(CC(=O)N3CCC(N4C(=O)CCc5ccccc54)CC3)c(OCCF)c2)CC1 | > 10 µM | – | – | – | – | – | – | – | – | – | – | – | – | – | – | – | –
2 | Cl.O=C(Cc1ccc(OC2CCNCC2)cc1OCCF)N1CCC(N2C(=O)CCc3ccccc32)CC1 | > 10 µM | 1270 nM | 700 nM | 1270 nM | 6.79 µM | 500 nM | 187 nM | 5.6 µM | 80 nM | 15 nM | 8.7 µM | – | – | – | – | – | –
3 | O=C(Cc1ccc(OC2CCNCC2)cc1OCC[18F])N1CCC(N2C(=O)CCc3ccccc32)CC1 | – | – | – | – | – | – | – | – | – | – | – | 1.57 | Active | Active | Not Active | Active | Active
